# Results taken from patent US20180193336A1, “SPRAY DRY FORMULATIONS” (Pulmokine, Inc., priority 2013, published 2018).
# Read-outs that look alike come from different tables or passages of the source. Marks after values point to notes of the source that are not given here.
# Key:
# rat MCT+PN model = assay: Two-chamber plethysmography, PK10453 in rat MCT+PN model; assay type: in vivo; conditions: for MV (minute ventilation) / PEF (peak expiratory flow) / PIF (peak inspiratory flow) / SRaw (airway resistance) / TV (tidal volume) / f (breathing frequency): MCT+PN, mean
# Procedure: Plethysmography was performed with an EMKA dual chamber plethysmograph and IOX software. Parameters measured included breathing frequency, tidal volume, minute ventilation, peak inspiratory and expiratory flow, and airway resistance (SRaw). Animals were acclimatized to the plethysmograph for three days prior to first data acquisition. Measurements were made prior to the first dose of drug and at the end of the study.
# [1] = test system: PDGFBB stimulated phosphorylation of ERK1 and ERK2; assay: PDGFBB stimulated phosphorylation of ERK1 and ERK2 in human fetal lung fibroblasts; assay type: cell-based
# Excerpt: (§1) Data shown are mean±SEM. […] PK10453=structure 2; PK10571=structure 2a. Platelet derived growth factor receptor alpha=PDGFR-alpha=PDGFR-α=PDGF receptor alpha=PDGF alpha receptor. Platelet derived growth factor receptor beta=PDGFR-beta=PDGFRβ=PDGF receptor beta=PDGF beta receptor.
# [2] = test system: PDGFAA stimulated phosphorylation of ERK1 and ERK2; assay: PDGFAA stimulated phosphorylation of ERK1 and ERK2 in human fetal lung fibroblasts; assay type: cell-based; conditions: 1 uM; PDGFAA 10 ng/ml
# Excerpt: as §1
# [3] = test system: phosphorylated AKT, STAT3 and ERK1/2 in lung extracts; assay: NanoPro immunoassay of lung extracts, rat MCT+PN model; assay type: in vivo
# Procedure: Relative differences in phosphorylated ERK1/2 and STAT isoforms were measured with a anoProlOO® immunoassay system (Protein Simple/Cell Biosciences, CA). See Fan et al., “Nanofluidic proteomic assay for serial analysis of oncoprotein activation in clinical specimens.” Nat Med 15:566-571 (2009).
# rat MCT model [4] = test system: rat MCT model
# Procedure: At the end of the study RVSP pressure was measured; lung and heart fixed in formalin. For measurement of RVSP animals were sedated with isoflurane, intubated via a tracheostomy, and ventilated with a TOPOVENT pressure regulated ventilator (peak inspiratory pressure 18 cm H20, PEEP 5 cm). After sternotomy, a Scisense high fidelity catheter inserted via the RV apex.
# At the end of the study, the heart and lungs were removed from ventilated animals under general anesthesia. Heparinized saline was infused under pressure through the main pulmonary artery. […] The heart was removed, and the RV free wall, interventricular septum and LV free wall dissected and weighed. Buffered formalin (10%) was infused under pressure both through the pulmonary artery and the trachea. Morphometric analysis was performed on H&E stained formalin fixed tissue sectioned at 8 μm. The media area and lumen area of pulmonary arterioles were measured with Image J software by a technician blinded to treatment group. Measurements were made on 20 pulmonary arterioles per section. The ratio of the lumen area to the total media area was determined. This ratio normalizes the variation in total pulmonary arteriole area. […] Briefly, pre-capillary arterioles were assigned grade 0 for no evidence of neointimal lesions, grade 1 for less than 50% luminal occlusion, and grade 2 for greater than 50% occlusion.
# rat MCT model [5] = assay: Efficacy in rat MCT model, PK10453 dose response; assay type: in vivo
# Procedure: Male Sprague Dawley rats received MCT 60 mg/kg IPMCT, and after 3 weeks, PK10453 (Structure 2) or vehicle control were administered by inhalation. Four groups were studied: vehicle control (4 min exposure) and three treatment groups of PK10453 (Structure 2) with exposure times 2 min (D2), 4 min (D4), or 8 min (D8) three times a day. These regimens were administered for two weeks. The vehicle consisted of aerosolized 1M tosylic acid neutralized with ammonia vapor as described above. The pH of a solution prepared by dissolving captured aerosol particles in water was measured for every dose and was consistently in the range of 5.5-6.0. At the end of the study, the RV systolic pressure was measured, and the heart chambers dissected and weighed.
# PDGFRbeta = PDGFRbeta (Homo sapiens, UniProt P09619); conditions: FIG. 25
# Chain of PDGFRbeta (P09619 600-962 limits assumed): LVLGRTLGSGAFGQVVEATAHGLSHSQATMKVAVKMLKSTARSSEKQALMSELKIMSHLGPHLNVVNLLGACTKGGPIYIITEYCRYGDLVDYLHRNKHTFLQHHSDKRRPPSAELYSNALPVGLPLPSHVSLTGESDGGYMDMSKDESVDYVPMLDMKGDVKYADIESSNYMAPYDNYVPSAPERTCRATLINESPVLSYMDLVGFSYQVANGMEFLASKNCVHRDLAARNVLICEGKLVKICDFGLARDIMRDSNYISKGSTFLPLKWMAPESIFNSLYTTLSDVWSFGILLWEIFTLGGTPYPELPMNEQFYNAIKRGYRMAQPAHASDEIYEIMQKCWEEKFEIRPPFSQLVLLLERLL
# Procedure: A Z-lyte kinase assay was performed to determine the inhibition of PDGFRalpha and PDGFRbeta mediated phosphorylation by PK10453 (Structure 2). Ten point titration curves were modeled to calculate the IC50 (Invitrogen Select Screen®).
# [6] = test system: PDGFAA stimulated AKT phosphorylation; assay: In cell Western, PDGFAA stimulated AKT phosphorylation in human fetal lung fibroblasts; assay type: cell-based; conditions: for IC50: Fibroblast
# Procedure: (§2) HLFs were maintained in subculture at no more than 6 passages in DMEM with 5% FBS and 4 mM Glutamax at 37° C., 5% CO2. HLFs were plated and grown to 70-80% confluence in 96 well plates then serum-starved for 48 hours. […] Antibodies were detected using IRDye 680LT goat anti-mouse IgG and IRDye 800 W goat α-rabbit IgG conjugated antibodies. After washing, the signal was quantified using an Odyssey Infrared Imaging System (LI-COR). Phosphoprotein signal (800 nm) was normalized to total protein signal (700 nm) acquired from each well and experimental duplicates on same plate were averaged and reported.
# [7] = test system: PDGFBB stimulated AKT phosphorylation; assay: In cell Western, PDGFBB stimulated AKT phosphorylation in human fetal lung fibroblasts; assay type: cell-based; conditions: for IC50: Fibroblast
# Procedure: as §2
# [8] = Aerosol particle size of nebulized drug, Anderson cascade impactor; assay type: physicochemical; conditions: 20 mg/ml in 1M tosylic acid, PARI nebulizer
# Procedure: PK10453 (Structure 2) was dissolved at a concentration of 20 mg/ml in 1M tosylic acid. Nebulization was performed with a PARI Nebulizer with an air pressure of 12.5 psi. The aerosol droplets were neutralized by ammonia vapor that was passed into the aerosol air stream. The particles were then dried by flowing through an annular ring of silica bead cartridges prior to reaching the exposure chamber. The 6-port exposure chamber was a nose-only exposure system custom designed and built by Powerscope Inc. (Minneapolis, Minn.). The vacuum flow rate at each port was separately controlled by a flow meter. The aerosol particle size was measured at the exit port of the drying column with an Anderson (Mark II) cascade impactor. The mass median aerodynamic diameter (MMAD) was 2 μm and the associated geometric standard deviation (GSD) was 1.6.
# [9] = 8 min inhalation three times a day, two weeks
compound,measurement,setting,value
"COc1cc(-c2cncc(N[C@@H](C)c3cccc(NC(=O)c4cncc(C)c4)c3)n2)ccc1O [PK10453, (S)—N-(3-(1-((6-(4-hydroxy-β-methoxyphenyl)pyrazin-2yl)amino)ethyl)phenyl)-5-methylnicotinamide]",MV (minute ventilation),"rat MCT+PN model; D4, Day 1",223.24 mL/min
same,PEF (peak expiratory flow),"rat MCT+PN model; D4, Day 1",11.04
same,PIF (peak inspiratory flow),"rat MCT+PN model; D4, Day 1",9.82
same,SRaw (airway resistance),"rat MCT+PN model; D4, Day 1",39.73
same,TV (tidal volume),"rat MCT+PN model; D4, Day 1",1.00 mL
same,f (breathing frequency),"rat MCT+PN model; D4, Day 1",224.68 breaths per minute
same,MV (minute ventilation),"rat MCT+PN model; D4, Day 15",176.12§ mL/min
same,PEF (peak expiratory flow),"rat MCT+PN model; D4, Day 15",9.33*
same,PIF (peak inspiratory flow),"rat MCT+PN model; D4, Day 15",7.82*
same,SRaw (airway resistance),"rat MCT+PN model; D4, Day 15",33.09
same,TV (tidal volume),"rat MCT+PN model; D4, Day 15",0.85 mL
same,f (breathing frequency),"rat MCT+PN model; D4, Day 15",217.12 breaths per minute
same,MV (minute ventilation),"rat MCT+PN model; D8, Day 1",174.68 mL/min
same,PEF (peak expiratory flow),"rat MCT+PN model; D8, Day 1",9.43
same,PIF (peak inspiratory flow),"rat MCT+PN model; D8, Day 1",8.54
same,SRaw (airway resistance),"rat MCT+PN model; D8, Day 1",36.01
same,TV (tidal volume),"rat MCT+PN model; D8, Day 1",0.74 mL
same,f (breathing frequency),"rat MCT+PN model; D8, Day 1",259.13 breaths per minute
same,MV (minute ventilation),"rat MCT+PN model; D8, Day 15",128.49 mL/min
same,PEF (peak expiratory flow),"rat MCT+PN model; D8, Day 15",6.64
same,PIF (peak inspiratory flow),"rat MCT+PN model; D8, Day 15",6.06
same,SRaw (airway resistance),"rat MCT+PN model; D8, Day 15",49.26
same,TV (tidal volume),"rat MCT+PN model; D8, Day 15",0.63 mL
same,f (breathing frequency),"rat MCT+PN model; D8, Day 15",232.11 breaths per minute
same,effect on lung function,"rat MCT+PN model; inhaled, 2-wk course",did not adversely affect lung function
same,decrease of PDGF BB stimulated ppERK1 and ppERK2 relative to imatinib,[1]; 1 uM and 10 uM,more effective
same,decrease of PDGFBB stimulated ppERK1 formation,"[1]; 1 uM, PDGF BB 10 ng/ml",effective
same,ratio diphosphorylated ERK2 to total ERK2 (ppERK2/ERK2),"[1]; PDGFAA or PDGFBB stimulation (10 ng/ml), 1 uM and 10 uM",significantly decreased
same,ratio diphosphorylated ERK1 to total ERK1 (ppERK1/ERK1),"[1]; PDGFAA or PDGFBB stimulation, 1 μM and 10 μM",significantly decreased
same,decrease of PDGF AA stimulated ppERK1 and ppERK2 formation,[2],equally effective
same,pAKT(Ser473)/AKT ratio in lung extracts,[3],significant reduction
same,pERK1/ERK1 in lung homogenates,[3]; D4 and D8 compared to vehicle,significant reductions
same,pSTAT3/STAT3 ratio in lung,[3]; D4 and D8 compared to vehicle,significant reduction
same,ppERK1/ERK1 in lung homogenates,[3]; D4 and D8 compared to vehicle,significant reductions
same,pAKT(Thr308)/AKT ratio in lung extracts,"[3]; V, D4, D8",not significantly different
same,"end diastolic volume, ejection fraction, cardiac output, stroke work, difference between groups",rat MCT model [4],no significant differences
same,Lumen/Media ratio,rat MCT model [4]; 8 min exposures,0.94±0.08
same,End systolic volume,rat MCT model [4]; [9],99.5 µL
same,RV end systolic pressure,rat MCT model [4]; [9],36.3±2.6 mm Hg
same,"degree of RV hypertrophy, ratio (RV+IVS)/LV weight",rat MCT model [5]; rat MCT,significant reduction
same,decrease of RV systolic pressure,"rat MCT model [5]; rat MCT model, discussion",50%
same,reduction in RVSP compared to the vehicle treated group,"rat MCT model [5]; rat MCT, D4",44%
same,reduction in RVSP compared to the vehicle treated group,"rat MCT model [5]; rat MCT, D8",54%
same,potency against PDGFR beta kinase domain relative to imatinib,PDGFRbeta,more potent than imatinib
same,"IC50 for PDGFAA stimulated phosphorylation of AKT, PK10453 compared with imatinib",[6],not significantly different
same,IC50,"[6]; legend of FIG. 2 PANEL A, read-out: IC50 for PDGFAA stimulation of pAKT(S473)",300 to 600 nM
same,IC50,"[6]; legend of FIG. 2 PANEL B, read-out: IC50 for PDGFAA stimulation of pAKT(T308)",300 to 600 nM
same,IC50,"[7]; human fetal lung fibroblasts, 10 ng/ml PDGFBB, read-out: IC50 for PDGFBB stimulated AKT phosphorylation at Ser473",130 nM
same,IC50,"[7]; human fetal lung fibroblasts, 10 ng/ml PDGFBB, read-out: IC50 for PDGFBB stimulated AKT phosphorylation at Thr308",430 nM
same,IC50,"[7]; human fetal lung fibroblasts, legend of FIG. 2 PANEL C, read-out: IC50 for PDGFBB stimulation of pAKT(Ser473)",130 nM
same,IC50,"[7]; Homo sapiens, FIG. 26, each concentration in duplicate, read-out: IC50, PDGF BB stimulated pAKT in human lung fibroblasts",150 nM
same,IC50 for inhibiting PDGFBB stimulated AKT phosphorylation relative to imatinib,"[7]; fetal human lung fibroblasts, FIG. 18",lower IC50 concentration compared to imatinib
same,mass median aerodynamic diameter (MMAD) of dried nebulized aerosol,[8],2 μm
